According to patent publication US7033808B2, “Carbonyl reductase, gene thereof and method of using the same” (Kaneka Corporation, priority 2000, dated 2006):
Read-outs that look alike come from different tables or passages of the source.

Tested on: BRD
Experiment: BRD reducing activity with added metal ions and inhibitors
Type: biochemical, Micrococcus luteus IFO 13867
[1] = addition level 1 mM, activity without addition = 100%
[2] = addition level 0.01 mM, activity without addition = 100%
[3] = addition level 0.1 mM, activity without addition = 100%

c1cnc2c(c1)ccc1cccnc12 [1,10-Phenanthroline]
Relative activity [1]: 90%

CCN1C(=O)C=CC1=O [NEM]
Relative activity [1]: 94%

O=c1c(O)c(-c2ccc(O)c(O)c2)oc2cc(O)cc(O)c12 [Quercetin]
Relative activity [2]: 94%

[Cl][Mn][Cl] [MnCl2]
Relative activity [1]: 89%

O=C(O)CI [Iodoacetic acid]
Relative activity: 89%

O=S(=O)([O-])[O-].[Cu+2] [CuSO4]
Relative activity [3]: 6% | Relative activity [1]: 5% | Inhibition of the enzyme (result in words): inhibited

O=C(O)c1cc[c]([Hg][Cl])cc1 [PCMB]
Relative activity [3]: 78%

O=S(=O)([O-])[O-].[Mg+2] [MgSO4]
Relative activity [1]: 99%

O=S(=O)(F)Cc1ccccc1 [PMSF, phenylmethylsulfonyl fluoride]
Relative activity [1]: 89%

O=C(O)c1cc(SSc2ccc([N+](=O)[O-])c(C(=O)O)c2)ccc1[N+](=O)[O-] [DTNB]
Relative activity [2]: 93%

O=S(=O)([O-])[O-].[Zn+2] [ZnSO4]
Relative activity [1]: 99%

O=C1NC(=O)C(c2ccccc2)(c2ccccc2)N1 [5,5-Diphenylhydantoin]
Relative activity (addition level 0.5 mM, activity without addition = 100%): 99%

O=C(O)CN(CCN(CC(=O)O)CC(=O)O)CC(=O)O [EDTA]
Relative activity: 88%

[Cl-].[Cl-].[Co+2] [CoCl2]
Relative activity: 99%
